Measured values taken from patent publication US20240101540A1, “TARGETED PROTEIN DEGRADATION OF PARP14 FOR USE IN THERAPY” (Ribon Therapeutics, Inc., priority 2022, published 2024).

Molecular target: T1, HiBiT tagged PARP14 (Homo sapiens, UniProt Q460N5)
T1 construct: engineered to contain a HiBiT tag on both alleles of the PARP14 gene; endogenous in cells; host or cells: Jurkat cells stably transfected with LgBiT (Promega), PARP14 locus edited by CRISPR/Cas9
Assay: HiBiT assay for the degradation of PARP14 (HiBiT tagged PARP14 in LgBiT expressing Jurkat cells, 2 or 24 hours)
Assay type: cell-based
Conditions: Assay B (Example B): HiBiT tagged PARP14 degradation in LgBiT expressing Jurkat cells, read-out: DC50
How it was run: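 Luminescence from HiBiT–LgBiT complementation served as proxy for endogenous PARP14 level in edited LgBiT Jurkat cells (5,000/well). After 2 or 24 h compound exposure at 37 °C, signal read with Live Cell Substrate, expressed as % of 0.1% DMSO control, and fitted (4-parameter, free Hill) for DC50.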

T1 sequence (Q460N5 whole entry): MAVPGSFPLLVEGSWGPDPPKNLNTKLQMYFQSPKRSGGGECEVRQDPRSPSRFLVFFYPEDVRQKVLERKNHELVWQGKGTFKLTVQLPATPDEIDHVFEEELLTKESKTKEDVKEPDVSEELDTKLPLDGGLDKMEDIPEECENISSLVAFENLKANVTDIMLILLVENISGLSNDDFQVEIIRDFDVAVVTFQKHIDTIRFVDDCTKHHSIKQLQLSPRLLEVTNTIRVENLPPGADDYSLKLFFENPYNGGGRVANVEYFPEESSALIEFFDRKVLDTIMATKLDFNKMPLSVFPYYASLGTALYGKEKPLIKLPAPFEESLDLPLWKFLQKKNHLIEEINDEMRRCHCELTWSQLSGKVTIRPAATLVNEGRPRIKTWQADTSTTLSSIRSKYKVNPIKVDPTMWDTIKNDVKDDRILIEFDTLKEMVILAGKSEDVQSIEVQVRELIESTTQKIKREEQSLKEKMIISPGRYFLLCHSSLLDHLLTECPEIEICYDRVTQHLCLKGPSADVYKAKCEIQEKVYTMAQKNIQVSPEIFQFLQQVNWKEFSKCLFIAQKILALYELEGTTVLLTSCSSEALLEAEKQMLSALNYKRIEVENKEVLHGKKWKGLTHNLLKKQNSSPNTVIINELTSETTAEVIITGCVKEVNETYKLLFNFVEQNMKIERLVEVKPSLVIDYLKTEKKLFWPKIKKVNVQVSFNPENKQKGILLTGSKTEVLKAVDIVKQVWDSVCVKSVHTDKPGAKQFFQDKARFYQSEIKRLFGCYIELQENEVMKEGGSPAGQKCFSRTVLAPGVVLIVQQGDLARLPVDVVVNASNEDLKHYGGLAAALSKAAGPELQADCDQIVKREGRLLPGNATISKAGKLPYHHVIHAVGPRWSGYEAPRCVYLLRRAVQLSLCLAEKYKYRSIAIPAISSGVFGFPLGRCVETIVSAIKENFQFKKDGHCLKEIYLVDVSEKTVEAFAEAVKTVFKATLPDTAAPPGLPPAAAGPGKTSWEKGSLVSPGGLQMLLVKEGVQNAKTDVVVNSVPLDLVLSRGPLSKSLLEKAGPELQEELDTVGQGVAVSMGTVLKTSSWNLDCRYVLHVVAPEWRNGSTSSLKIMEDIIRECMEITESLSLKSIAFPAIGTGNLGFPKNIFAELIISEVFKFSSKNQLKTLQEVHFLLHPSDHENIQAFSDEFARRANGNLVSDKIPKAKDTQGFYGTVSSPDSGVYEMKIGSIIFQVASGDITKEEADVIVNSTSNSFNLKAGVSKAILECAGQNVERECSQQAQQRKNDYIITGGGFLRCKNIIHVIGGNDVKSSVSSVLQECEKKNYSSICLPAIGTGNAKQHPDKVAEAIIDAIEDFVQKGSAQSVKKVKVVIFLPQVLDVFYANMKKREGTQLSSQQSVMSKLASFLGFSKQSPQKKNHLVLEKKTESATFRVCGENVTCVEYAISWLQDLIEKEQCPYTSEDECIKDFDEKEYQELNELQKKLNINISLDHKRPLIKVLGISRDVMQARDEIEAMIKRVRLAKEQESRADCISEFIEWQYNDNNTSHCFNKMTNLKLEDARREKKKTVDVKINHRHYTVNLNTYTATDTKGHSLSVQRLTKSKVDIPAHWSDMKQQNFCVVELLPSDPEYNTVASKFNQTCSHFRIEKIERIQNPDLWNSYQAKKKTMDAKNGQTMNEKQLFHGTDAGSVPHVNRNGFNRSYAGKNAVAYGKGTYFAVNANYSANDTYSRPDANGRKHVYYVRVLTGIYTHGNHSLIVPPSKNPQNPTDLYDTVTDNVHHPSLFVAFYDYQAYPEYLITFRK

Row | DC50 [nM] | SMILES
1 | < 30 | Cn1nc(N2CCC(=O)NC2=O)c2cc(F)c(N3CCC(CN4CCC(COc5cc(F)c6c(=O)[nH]c(COC7CCOCC7)nc6c5)CC4)CC3)cc21 [Example 183, 1-(5-fluoro-6-(4-((4-(((5-fluoro-4-oxo-2-(((tetrahydro-2H-pyran-4-yl)oxy)methyl)-3,4-dihydroquinazolin-7-yl)oxy)methyl)piperidin-1-yl)methyl)piperidin-1-yl)-1-methyl-1H-indazol-3-yl)dihydropyrimidine-2,4(1H,3H)-dione]
2 | < 30 | Cn1nc(N2CCC(=O)NC2=O)c2ccc(N3CCC(COc4cc(F)c5c(=O)[nH]c(COC6CCOCC6)nc5c4)CC3)cc21 [Example 184, 1-(6-(4-(((5-fluoro-4-oxo-2-(((tetrahydro-2H-pyran-4-yl)oxy)methyl)-3,4-dihydroquinazolin-7-yl)oxy)methyl)piperidin-1-yl)-1-methyl-1H-indazol-3-yl)dihydropyrimidine-2,4(1H,3H)-dione]
3 | < 30 | Cn1nc(N2CCC(=O)NC2=O)c2cc(F)c(N3CC(N4CCC(COc5cc(F)c6c(=O)[nH]c(CSC7CCOCC7)nc6c5)CC4)C3)cc21 [Example 185, 1-(5-fluoro-6-(3-(4-(((5-fluoro-4-oxo-2-(((tetrahydro-2H-pyran-4-yl)thio)methyl)-3,4-dihydroquinazolin-7-yl)oxy)methyl)piperidin-1-yl)azetidin-1-yl)-1-methyl-1H-indazol-3-yl)dihydropyrimidine-2,4(1H,3H)-dione]
4 | < 30 | Cn1nc(N2CCC(=O)NC2=O)c2ccc(C3CCN(CCOc4cc(F)c5c(=O)[nH]c(CSC6CCOCC6)nc5c4)CC3)cc21 [Example 186, 1-(6-(1-(2-((5-fluoro-4-oxo-2-(((tetrahydro-2H-pyran-4-yl)thio)methyl)-3,4-dihydroquinazolin-7-yl)oxy)ethyl)piperidin-4-yl)-1-methyl-1H-indazol-3-yl)dihydropyrimidine-2,4(1H,3H)-dione]
5 | < 30 | Cn1nc(N2CCC(=O)NC2=O)c2ccc(C3CCN(C4CCN(CCOc5cc(F)c6c(=O)[nH]c(CSC7CCOCC7)nc6c5)CC4)CC3)cc21 [Example 187, 1-(6-(1′-(2-((5-fluoro-4-oxo-2-(((tetrahydro-2H-pyran-4-yl)thio)methyl)-3,4-dihydroquinazolin-7-yl)oxy)ethyl)-[1,4′-bipiperidin]-4-yl)-1-methyl-1H-indazol-3-yl)dihydropyrimidine-2,4(1H,3H)-dione diformate]
6 | < 30 | O=C1CCC(Nc2ccc(C(=O)N3CCN(CCN4CCC(COc5cc(F)c6c(=O)[nH]c(CSC7CCOCC7)nc6c5)CC4)CC3)cc2)C(=O)N1 (centres unmarked) [Example 188, 3-((4-(4-(2-(4-(((5-fluoro-4-oxo-2-(((tetrahydro-2H-pyran-4-yl)thio)methyl)-3,4-dihydroquinazolin-7-yl)oxy)methyl)piperidin-1-yl)ethyl)piperazine-1-carbonyl)phenyl)amino)piperidine-2,6-dione]
7 | < 30 | O=C1CCC(Nc2ccc(N3CCN(C(=O)CN4CCC(COc5cc(F)c6c(=O)[nH]c(CSC7CCOCC7)nc6c5)CC4)CC3)c(F)c2)C(=O)N1 (centres unmarked) [Example 189, 3-((3-fluoro-4-(4-(2-(4-(((5-fluoro-4-oxo-2-(((tetrahydro-2H-pyran-4-yl)thio)methyl)-3,4-dihydroquinazolin-7-yl)oxy)methyl)piperidin-1-yl)acetyl)piperazin-1-yl)phenyl)amino)piperidine-2,6-dione]
8 | < 30 | O=C1CCC(N2C(=O)c3ccc(N4CCC(N5CCC(COc6cc(F)c7c(=O)[nH]c(CSC8CCOCC8)nc7c6)CC5)CC4)cc3C2=O)C(=O)N1 (centres unmarked) [Example 190, 2-(2,6-dioxopiperidin-3-yl)-5-(4-(((5-fluoro-4-oxo-2-(((tetrahydro-2H-pyran-4-yl)thio)methyl)-3,4-dihydroquinazolin-7-yl)oxy)methyl)-[1,4′-bipiperidin]-1′-yl)isoindoline-1,3-dione]
